Reference: paper PMC2806602 (The Journal of neuroscience : the official journal of the …, 2009)
Positions count from the first letter of the chain named.

Columns and labels:
Assay type in all cases: cell-based
[1] = target: T1, GluRδ2^Lc D535C+D782C (Rattus norvegicus, UniProt Q63226, A654T/D535C/D782C); experiment: Two-electrode voltage-clamp recordings in Xenopus oocytes, GluRδ2^Lc D535C+D782C
T1 sequence (Q63226 24-1007 D535C/A654T/D782C): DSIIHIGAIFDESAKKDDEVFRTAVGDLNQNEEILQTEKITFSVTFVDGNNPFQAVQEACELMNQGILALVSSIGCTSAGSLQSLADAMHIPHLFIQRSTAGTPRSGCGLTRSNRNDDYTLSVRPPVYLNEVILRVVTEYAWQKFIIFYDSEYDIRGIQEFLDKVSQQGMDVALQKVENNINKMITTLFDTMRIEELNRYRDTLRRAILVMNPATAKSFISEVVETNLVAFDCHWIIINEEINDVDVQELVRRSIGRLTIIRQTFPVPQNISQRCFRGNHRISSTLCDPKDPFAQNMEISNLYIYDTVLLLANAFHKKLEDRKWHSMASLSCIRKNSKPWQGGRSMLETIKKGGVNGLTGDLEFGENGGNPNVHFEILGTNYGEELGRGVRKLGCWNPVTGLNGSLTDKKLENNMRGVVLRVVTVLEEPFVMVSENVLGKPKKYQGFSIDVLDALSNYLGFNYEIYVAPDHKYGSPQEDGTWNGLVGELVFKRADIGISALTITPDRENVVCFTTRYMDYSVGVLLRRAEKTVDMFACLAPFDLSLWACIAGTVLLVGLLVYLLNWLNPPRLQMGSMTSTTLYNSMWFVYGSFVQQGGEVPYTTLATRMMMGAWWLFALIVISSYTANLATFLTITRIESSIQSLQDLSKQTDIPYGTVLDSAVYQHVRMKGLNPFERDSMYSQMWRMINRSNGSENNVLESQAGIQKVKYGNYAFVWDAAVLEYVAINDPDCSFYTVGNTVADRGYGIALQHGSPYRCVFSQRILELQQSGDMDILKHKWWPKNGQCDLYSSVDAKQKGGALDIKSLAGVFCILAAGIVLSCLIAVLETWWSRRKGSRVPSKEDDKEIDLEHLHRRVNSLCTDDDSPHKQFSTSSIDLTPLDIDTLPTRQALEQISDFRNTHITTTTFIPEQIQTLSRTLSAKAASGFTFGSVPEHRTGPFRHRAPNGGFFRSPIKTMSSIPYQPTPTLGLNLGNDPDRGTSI

[2] = target: T2, GluRδ2^Lc D535A+D782A (Rattus norvegicus, UniProt Q63226, A654T/D535A/D782A); experiment: Two-electrode voltage-clamp recordings in Xenopus oocytes, GluRδ2^Lc D535A+D782A
T2 sequence (Q63226 24-1007 D535A/A654T/D782A): T1 sequence (Q63226 24-1007 D535C/A654T/D782C) with C512A, C759A

[3] = target: T3, GluRδ2^Lc E531A+D782A (Rattus norvegicus, UniProt Q63226, A654T/D782A/E531A); experiment: Two-electrode voltage-clamp recordings in Xenopus oocytes, GluRδ2^Lc E531A+D782A
T3 sequence (Q63226 24-1007 E531A/A654T/D782A): T1 sequence (Q63226 24-1007 D535C/A654T/D782C) with E508A, C512D, C759A

| D-serine + 0 mM Ca^2+ nH ([1]; Hill slope, 0 mM Ca^2+) | D-serine + 3 mM Ca^2+ nH ([1]; Hill slope, 3 mM Ca^2+) | D-serine + 0 mM Ca^2+ nH ([2]; Hill slope, 0 mM Ca^2+) | D-serine + 3 mM Ca^2+ nH ([2]; Hill slope, 3 mM Ca^2+) | D-serine + 0 mM Ca^2+ nH ([3]; Hill slope, 0 mM Ca^2+) | D-serine + 3 mM Ca^2+ nH ([3]; Hill slope, 3 mM Ca^2+) | Ca^2+ potentiation (relative to baseline) ([1]; 3 mM Ca^2+, ± SEM) | Ca^2+ potentiation (relative to baseline) ([2]; 3 mM Ca^2+, ± SEM) | Ca^2+ potentiation (relative to baseline) ([3]; 3 mM Ca^2+, ± SEM) | SMILES |
| --- | --- | --- | --- | --- | --- | --- | --- | --- | --- |
| 0.9 | 1.0 | 1.0 | 1.1 | 2.3 | 2.4 |  |  |  | N[C@H](CO)C(=O)O [D-serine] |
|  |  |  |  |  |  | 0.9 ± 0.01 fold | 0.6 ± 0.01 fold | 0.9 ± 0.04 fold | [Ca+2] [Ca^2+, calcium] |
